Measured values published in patent US10913738B2 (BRISTOL-MYERS SQUIBB COMPANY, priority 2017, dated 2021).
Like-named read-outs stand apart in the source and are kept apart here.

Columns and labels:
[1] = tested on: MLKL phosphorylation in HT29-L23 human colorectal adenocarcinoma cells; assay: MLKL Phosphorylation High-Content Assay; assay type: cell-based; conditions: Homo sapiens
Outline: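 Cells incubated six hours at 37° C., then phospho-MLKL (S358) immunostained overnight at 4° C. and imaged by high-content microscopy. Phosphorylation quantified as mean circ-ring average intensity ratio; IC50 and Ymax from 4-parameter logistic fits.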

[2] = biological target: T1, His-GST-TVMV-hRIPK1(1-324) (Homo sapiens, UniProt Q13546); assay: RIPK1 HTRF Binding Assay
T1 construct: The coding region of human RIPK1(1-324) flanked by NdeI site at 5′ end; made in house; host or cells: Spodoptera frugiperda (Sf9) insect cells, baculovirus
T1 sequence (Q13546 1-324): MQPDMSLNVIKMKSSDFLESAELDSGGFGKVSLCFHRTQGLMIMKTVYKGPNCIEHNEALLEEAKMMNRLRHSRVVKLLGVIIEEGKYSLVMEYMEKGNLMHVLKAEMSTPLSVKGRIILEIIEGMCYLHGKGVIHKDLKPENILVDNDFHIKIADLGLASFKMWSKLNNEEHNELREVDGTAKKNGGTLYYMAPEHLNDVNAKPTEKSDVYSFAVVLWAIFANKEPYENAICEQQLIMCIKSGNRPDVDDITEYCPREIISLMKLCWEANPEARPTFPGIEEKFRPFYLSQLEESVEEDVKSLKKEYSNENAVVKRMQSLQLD

[3] = x marks IC50 class 20-200 nM, read-out: pMLKL cell activity 20-200 nM
[4] = x marks IC50 class <20 nM, read-out: RIPK1 HTRF binding <20 nM
[5] = x marks IC50 class <20 nM, read-out: pMLKL cell activity <20 nM
[6] = x marks IC50 class 20-200 nM, read-out: RIPK1 HTRF binding 20-200 nM

| SMILES | IC50 [1, 3] [nM] | IC50 [2, 4] [nM] | IC50 [1, 5] [nM] | IC50 [2, 6] [nM] |
| --- | --- | --- | --- | --- |
| COc1nc(C)c(-c2ccn3nc(N)nc3c2)cc1C(=O)NCc1cc(F)ccc1OCC1CCCC1 [Example 206, 5-{2-amino-[1,2,4]triazolo[1,5-a]pyridin-7-yl}-N-{[2-(cyclopentylmethoxy)-5-fluorophenyl]methyl}-2-methoxy-6-methylpyridine-3-carboxamide] | 20 to 200 | < 20 |  |  |
| COc1nc(C)c(-c2ccn3nc(N)nc3c2)cc1C(=O)NCc1ccccc1OCC1CCCC1 [Example 207, 5-{2-amino-[1,2,4]triazolo[1,5-a]pyridin-7-yl}-N-{[2-(cyclopentylmethoxy)phenyl]methyl}-2-methoxy-6-methylpyridine-3-carboxamide] |  | < 20 | < 20 |  |
| COc1nc(C)c(-c2ccn3nc(N)nc3c2)cc1C(=O)NCc1cc(F)cc(F)c1OCC1CCCC1 [Example 208, 5-{2-amino-[1,2,4]triazolo[1,5-a]pyridin-7-yl}-N-{[2-(cyclopentylmethoxy)-3,5-difluorophenyl]methyl}-2-methoxy-6-methylpyridine-3-carboxamide] | 20 to 200 | < 20 |  |  |
| COc1nc(C)c(-c2ccn3nc(N)nc3c2)cc1C(=O)NCc1cccnc1OCC1CCC1 [Example 209, 5-{2-amino-[1,2,4]triazolo[1,5-a]pyridin-7-yl}-N-{[2-(cyclobutylmethoxy)pyridin-3-yl]methyl}-2-methoxy-6-methylpyridine-3-carboxamide] | 20 to 200 | < 20 |  |  |
| COc1nc(C)c(-c2ccn3nc(N)nc3c2)cc1C(=O)NCc1cccc(OC(F)(F)F)c1 [Example 210, 5-{2-amino-[1,2,4]triazolo[1,5-a]pyridin-7-yl}-2-methoxy-6-methyl-N-{[3-(trifluoromethoxy)phenyl]methyl}pyridine-3-carboxamide] | 20 to 200 | < 20 |  |  |
| COc1nc(C)c(-c2ccn3nc(N)nc3c2)cc1C(=O)NCc1ccccc1OC(F)(F)F [Example 211, 5-{2-amino-[1,2,4]triazolo[1,5-a]pyridin-7-yl}-2-methoxy-6-methyl-N-{[2-(trifluoromethoxy)phenyl]methyl}pyridine-3-carboxamide] | 20 to 200 | < 20 |  |  |
| COc1nc(C)c(-c2ccn3nc(N)nc3c2)cc1C(=O)NCc1ccccc1OC(C)C [Example 212, 5-{2-amino-[1,2,4]triazolo[1,5-a]pyridin-7-yl}-2-methoxy-6-methyl-N-{[2-(propan-2-yloxy)phenyl]methyl}pyridine-3-carboxamide] |  | < 20 | < 20 |  |
| COc1nc(C)c(-c2ccn3nc(N)nc3c2)cc1C(=O)NCc1ncccc1OC1CCCC1 [Example 213, 5-{2-amino-[1,2,4]triazolo[1,5-a]pyridin-7-yl}-N-{[3-(cyclopentyloxy)pyridin-2-yl]methyl}-2-methoxy-6-methylpyridine-3-carboxamide] |  | < 20 | < 20 |  |
| COc1nc(C)c(-c2ccn3nc(N)nc3c2)cc1C(=O)NCc1c(F)cccc1OCC1CCC1 [Example 214, 5-{2-amino-[1,2,4]triazolo[1,5-a]pyridin-7-yl}-N-{[2-(cyclobutylmethoxy)-6-fluorophenyl]methyl}-2-methoxy-6-methylpyridine-3-carboxamide] |  | < 20 | < 20 |  |
| COc1nc(C)c(-c2ccn3nc(N)nc3c2)cc1C(=O)NCc1c(F)cccc1OCC1CC1 [Example 215, 5-{2-amino-[1,2,4]triazolo[1,5-a]pyridin-7-yl}-N-{[2-(cyclopropylmethoxy)-6-fluorophenyl]methyl}-2-methoxy-6-methylpyridine-3-carboxamide] |  | < 20 | < 20 |  |
| COc1nc(C)c(-c2ccn3nc(N)nc3c2)cc1C(=O)NCc1cc(F)ccc1OC1CCCC1 [Example 216, 5-{2-amino-[1,2,4]triazolo[1,5-a]pyridin-7-yl}-N-{[2-(cyclopentyloxy)-5-fluorophenyl]methyl}-2-methoxy-6-methylpyridine-3-carboxamide] |  | < 20 | < 20 |  |
| COc1nc(C)c(-c2ccn3nc(N)nc3c2)cc1C(=O)NCc1c(F)cccc1OC1CCCC1 [Example 217, 5-{2-amino-[1,2,4]triazolo[1,5-a]pyridin-7-yl}-N-{[2-(cyclopentyloxy)-6-fluorophenyl]methyl}-2-methoxy-6-methylpyridine-3-carboxamide] | 20 to 200 | < 20 |  |  |
| COc1nc(C)c(-c2ccn3nc(N)nc3c2)cc1C(=O)NCCC(C)c1ccccc1 (stereo not drawn) [Example 218, 5-{2-amino-[1,2,4]triazolo[1,5-a]pyridin-7-yl}-2-methoxy-6-methyl-N-(3-phenylbutyl)pyridine-3-carboxamide] |  | < 20 | < 20 |  |
| COc1nc(C)c(-c2ccn3nc(N)nc3c2)cc1C(=O)NCc1ccccc1OC1CCCC1 [Example 219, 5-{2-amino-[1,2,4]triazolo[1,5-a]pyridin-7-yl}-N-{[2-(cyclopentyloxy)phenyl]methyl}-2-methoxy-6-methylpyridine-3-carboxamide] |  | < 20 | < 20 |  |
| COc1nc(C)c(-c2ccn3nc(N)nc3c2)cc1C(=O)NCc1c(F)cccc1OCC1CCCC1 [Example 220, 5-{2-amino-[1,2,4]triazolo[1,5-a]pyridin-7-yl}-N-{[2-(cyclopentylmethoxy)-6-fluorophenyl]methyl}-2-methoxy-6-methylpyridine-3-carboxamide] | 20 to 200 | < 20 |  |  |
| COc1nc(C)c(-c2ccn3nc(N)nc3c2)cc1C(=O)NCc1ccccc1OCC1CC1 [Example 221, 5-{2-amino-[1,2,4]triazolo[1,5-a]pyridin-7-yl}-N-{[2-(cyclopropylmethoxy)phenyl]methyl}-2-methoxy-6-methylpyridine-3-carboxamide] |  | < 20 | < 20 |  |
| [2H]C([2H])(NC(=O)c1cc(-c2ccn3nc(N)nc3c2)c(C)nc1OC)c1cc(OC(F)(F)F)ccc1F [Example 222, 5-{2-amino-[1,2,4]triazolo[1,5-a]pyridin-7-yl}-N-{[2-fluoro-5-(trifluoromethoxy)phenyl](deutero)methyl}-2-methoxy-6-methylpyridine-3-carboxamide] |  | < 20 | < 20 |  |
| COc1nc(C)c(-c2ccn3nc(N)nc3c2)cc1C(=O)NC(C)c1cccc(OC(F)(F)F)c1 (stereo not drawn) [Example 223, 5-{2-amino-[1,2,4]triazolo[1,5-a]pyridin-7-yl}-2-methoxy-6-methyl-N-{1-[3-(trifluoromethoxy)phenyl]ethyl}pyridine-3-carboxamide] | 20 to 200 | < 20 |  |  |
| Cc1ncc(-c2ccn3nc(N)nc3c2)cc1C(=O)NCC[C@@H](O)c1ccc(Cl)cc1 [Example 224] | 20 to 200 | < 20 |  |  |
| Cc1ncc(-c2ccn3nc(N)nc3c2)cc1C(=O)NCC[C@H](O)c1ccc(Cl)cc1 [Example 225] | 20 to 200 |  |  | 20 to 200 |
| Cc1ncc(-c2ccn3nc(N)nc3c2)cc1C(=O)NCc1cc(C(F)(F)F)ccc1F [Example 226, 5-{2-amino-[1,2,4]triazolo[1,5-a]pyridin-7-yl}-N-{[2-fluoro-5-(trifluoromethyl)phenyl]methyl}-2-methylpyridine-3-carboxamide] | 20 to 200 |  |  | 20 to 200 |
